Results as given in US9968694B2, “Compositions and methods for non-invasive imaging” (MERRIMACK PHARMACEUTICALS, INC., priority 2012, dated 2018).
Like-named read-outs stand apart in the source and are kept apart here.

What was measured:
[1] = Cu complex formation in HS buffer (appearance, precipitation); format: physicochemical; details: 0.1 mM chelator and Cu in HS buffer pH 6.5
Experimental: Cu:4-DEAP-ATSC and Cu:ATSM complexes were formed as follows. In 1 mL HS were added 5 μL of 20 mM CuSO4 and 5 μl of 20 mM 4-DEAP-ATSC (in DMSO) or 5 μL of 20 mM ATSM (in DMSO). […] The chelator and Cu concentration was 0.1 mM.

[2] = Storage stability of 4-DEAP-ATSC formulations (degradation); format: physicochemical
Experimental: Various 4-DEAP-ATSC formulations (see Table 10 below) were stored under different conditions. At designated time points, samples were collected where their storage stability were evaluated by functional readouts.
4-DEAP-ATSC was formulated in citrate buffer in a range of pH (pH 4-7). […] At a pH of between 6 and 7, the rates of degradation were very similar, with less than 15% degradation observed over a 4-month period when stored at −20° C. or 4° C.
4-DEAP-ATSC formulated in citrate buffer was stored at 4 different temperatures (−20° C., 4° C., 30° C., and 37° C.). […] (>60%) over a 1-month period. On the other hand, 4-DEAP-ATSC formulations stored at −20° C. and 4° C. can be stably preserved with less than 15% of degradation detected over a period of 4 months.
Various 4-DEAP-ATSC formulations were lyophilized and stored under different conditions to study the effect of lyophilization on their storage stability. […] In addition, mannitol was added to the formulation to serve as a bulking agent for lyophilization.
A set of 4-DEAP-ATSC formulations was filled with argon as an alternative means to improve storage stability of the liquid formulations. […] Significant degradation was still detected in formulations stored at elevated temperatures (30° C. and 37° C.). Additionally, storage stability of inert gas-filled lyophilized formulations was similar to air-filled lyophilized formulations (FIG. 19F).

[3] = ^64Cu chelation efficiency of 4-DEAP-ATSC by instant thin layer chromatography (ITLC); format: physicochemical
Source text: […] An instant thin layer chromatography (ITLC) assay was used for quantifying the fractions of uncomplexed ^64Cu and ^64Cu(II)-4-DEAP-ATSC complex in the chelation mixture. The uncomplexed ^64Cu can be detected at the solvent front, while the ^64Cu(II)-4-DEAP-ATSC complex remained at the origin where the sample is spotted.

[4] = Efficiency of ^64Cu:4-DEAP-ATSC loading into liposomes, size exclusion chromatography; format: physicochemical
Experimental: The efficiency of liposome loading for Step 2 (see FIG. 3) was determined. […] Encapsulated (liposomal) radioactivity was separated from total radioactivity using size exclusion chromatography. From this it was determined that >90% of the ^64Cu was loaded into the liposome at 4-DEAP-ATSC:lipid ratios <2 mol % as shown in Table 2.

[5] = over several weeks, cited from earlier work

CNC(=S)NN=C(C)C(C)=NNC(=S)NC [ATSM, diacetyl 4-methylthiosemicarbazone, reference compound]
appearance of Cu complex sample [1]: became turbid and developed a brown precipitate

CCN(CC)CCCNC(=S)NN=C(C)C(C)=NNC(=S)NCCCN(CC)CC [Sample 4-DEAP-ATSC, diacetyl 4,4′bis (3-(N,N-diethylamino)propyl)thiosemicarbazone]
degradation ([2]; citrate buffer pH between 6 and 7, 4-month period, stored at −20° C. or 4° C.): less than 15%
degradation ([2]; citrate buffer, stored at 30° C. and 37° C., 1-month period): > 60%
degradation ([2]; citrate buffer, stored at −20° C. and 4° C., period of 4 months): less than 15%
effect of inert gas atmosphere on storage stability ([2]; liquid formulations filled with argon): did not improve storage stability
effect of lyophilization on storage stability ([2]; lyophilized formulations): effective method to inhibit degradation
effect of mannitol on storage stability ([2]; mannitol as bulking agent for lyophilization): no effect on the storage stability
Chelation Efficiency ([3]; Specific Radioactivity 0.01 mCi/nmol): 11-46%
Chelation Efficiency ([3]; Specific Radioactivity 0.04 mCi/nmol): 98%
Chelation Efficiency ([3]; Specific Radioactivity 0.07 mCi/nmol): 68-97%
Chelation Efficiency ([3]; Specific Radioactivity 0.08 mCi/nmol): 99%
Chelation Efficiency ([3]; Specific Radioactivity 0.09 mCi/nmol): 99%
Chelation Efficiency ([3]; Specific Radioactivity 0.1 mCi/nmol): 99-100%
Chelation Efficiency ([3]; Specific Radioactivity 0.15 mCi/nmol): 98-99%
Chelation Efficiency ([3]; Specific Radioactivity 0.17 mCi/nmol): 96%
Chelation Efficiency ([3]; Specific Radioactivity 0.18 mCi/nmol): 94%
Chelation Efficiency ([3]; Specific Radioactivity 0.2 mCi/nmol): 96-99%
Chelation Efficiency ([3]; Specific Radioactivity 0.3 mCi/nmol): 98%
Chelation Efficiency ([3]; Specific Radioactivity 0.65 mCi/nmol): 99%
Chelation Efficiency ([3]; Specific Radioactivity 13.1 mCi/nmol): 99%
efficiency of chelation ([3]; specific radioactivities ranging from 0.07-0.3 mCi/nmol): 94-99%
appearance of Cu complex sample [1]: remained clear, without any signs of precipitation
^64Cu Loading Efficiency ([4]; 4-DEAP-ATSC:Lipid Ratio 0.01% (mol %)): 96-98%
^64Cu Loading Efficiency ([4]; 4-DEAP-ATSC:Lipid Ratio 0.04% (mol %)): 96-98%
^64Cu Loading Efficiency ([4]; 4-DEAP-ATSC:Lipid Ratio 0.10% (mol %)): 95-97%
^64Cu Loading Efficiency ([4]; 4-DEAP-ATSC:Lipid Ratio 0.15% (mol %)): 92-97%
^64Cu Loading Efficiency ([4]; 4-DEAP-ATSC:Lipid Ratio 0.25% (mol %)): 92-97%
^64Cu Loading Efficiency ([4]; 4-DEAP-ATSC:Lipid Ratio 0.40% (mol %)): 94-98%
^64Cu Loading Efficiency ([4]; 4-DEAP-ATSC:Lipid Ratio 0.50% (mol %)): 92-96%
^64Cu Loading Efficiency ([4]; 4-DEAP-ATSC:Lipid Ratio 0.67% (mol %)): 96%
^64Cu Loading Efficiency ([4]; 4-DEAP-ATSC:Lipid Ratio 0.75% (mol %)): 92%
^64Cu Loading Efficiency ([4]; 4-DEAP-ATSC:Lipid Ratio 1% (mol %)): 93-98%
^64Cu Loading Efficiency ([4]; 4-DEAP-ATSC:Lipid Ratio 2% (mol %)): 91-97%
^64Cu Loading Efficiency ([4]; 4-DEAP-ATSC:Lipid Ratio 4.20% (mol %)): 86%
^64Cu Loading Efficiency ([4]; 4-DEAP-ATSC:Lipid Ratio 5.00% (mol %)): 92-93%
^64Cu Loading Efficiency ([4]; 4-DEAP-ATSC:Lipid Ratio 10% (mol %)): 82-92%
^64Cu Loading Efficiency ([4]; 4-DEAP-ATSC:Lipid Ratio 25% (mol %)): 90%
^64Cu Loading Efficiency ([4]; 4-DEAP-ATSC:Lipid Ratio 50% (mol %)): 71%
^64Cu loaded into the liposome ([4]; 4-DEAP-ATSC:lipid ratios <2 mol %): > 90%

[Cu] [copper]
Toxic dose levels ([5]; 65 kg adult): ~154 µg/kg
Toxic dose levels [5]: > 10 mg/person/day
